This data set can be described thus: activity coefficient (dimensionless); of the first substance listed, at infinite dilution; xn = mol fraction of the nth substance listed. The conditions noted are these: 101 kPa, Liquid, Chromatography, x1 = 0.

± gives the expanded uncertainty stated by the source.

Regarding `CO` [methanol] + O=S(=O)([N-]S(=O)(=O)C(F)(F)F)C(F)(F)F.OCCC[n+]1ccccc1, the activity coefficient amounted to 0.87 ± 0.056 (318.15 K); 0.836 ± 0.054 (328.15 K); 0.804 ± 0.052 (338.15 K); 0.776 ± 0.051 (348.15 K); 0.749 ± 0.049 (358.15 K); 0.725 ± 0.048 (368.15 K). The activity coefficient (378.15 K) came out at 0.703 ± 0.047.
For the compound `CCCO` [propan-1-ol] + O=S(=O)([N-]S(=O)(=O)C(F)(F)F)C(F)(F)F.OCCC[n+]1ccccc1, the activity coefficient was 1.6 ± 0.11 (318.15 K); 1.52 ± 0.1 (328.15 K); 1.46 ± 0.1 (338.15 K); 1.39 ± 0.09 (348.15 K); 1.34 ± 0.09 (358.15 K); 1.28 ± 0.08 (368.15 K). In addition, the activity coefficient (378.15 K) came out at 1.24 ± 0.08.
As to `CCCCCCCCC` [nonane] + O=S(=O)([N-]S(=O)(=O)C(F)(F)F)C(F)(F)F.OCCC[n+]1ccccc1, the activity coefficient stood at 206 ± 14 (308.15 K); 181 ± 12 (318.15 K); 157 ± 11 (328.15 K); 139 ± 10 (338.15 K); 125 ± 9 (348.15 K); 111 ± 8 (358.15 K). Besides, the activity coefficient (368.15 K) came to 99.7 ± 6.8.
On to `CCCCCC` [hexane] + O=S(=O)([N-]S(=O)(=O)C(F)(F)F)C(F)(F)F.OCCC[n+]1ccccc1, for which the activity coefficient (308.15 K) stood at 51.3 ± 3.5; the activity coefficient (318.15 K) was 46.7 ± 3.2; the activity coefficient (328.15 K) worked out at 42.3 ± 2.9; the activity coefficient (338.15 K) stood at 38.5 ± 2.6; the activity coefficient (348.15 K) came out at 35.6 ± 2.4; the activity coefficient (358.15 K) was determined as 32.8 ± 2.2.
`COC(C)(C)C` [2-methoxy-2-methylpropane] + O=S(=O)([N-]S(=O)(=O)C(F)(F)F)C(F)(F)F.OCCC[n+]1ccccc1: the activity coefficient came out at 2.63 ± 0.18 (308.15 K); 2.74 ± 0.19 (318.15 K); 2.83 ± 0.19 (328.15 K); 2.91 ± 0.2 (338.15 K); 3.01 ± 0.2 (348.15 K); 3.08 ± 0.21 (358.15 K). Besides, the activity coefficient (368.15 K) was 3.18 ± 0.22.
`CCC(C)(C)C` [2,2-dimethylbutane] + O=S(=O)([N-]S(=O)(=O)C(F)(F)F)C(F)(F)F.OCCC[n+]1ccccc1: the activity coefficient was determined as 41 ± 3 (308.15 K); 37.3 ± 2.6 (318.15 K); 33.9 ± 2.3 (328.15 K); 30.9 ± 2.1 (338.15 K); 28.5 ± 1.9 (348.15 K); 26.3 ± 1.8 (358.15 K).
Consider `CC(C)CC(C)(C)C` [2,2,4-trimethylpentane] + O=S(=O)([N-]S(=O)(=O)C(F)(F)F)C(F)(F)F.OCCC[n+]1ccccc1, for which the activity coefficient was found to be 81.7 ± 5.6 (308.15 K); 73.9 ± 5.1 (318.15 K); 67 ± 4.6 (328.15 K); 60.7 ± 4.2 (338.15 K); 55.7 ± 3.8 (348.15 K); 51.4 ± 3.5 (358.15 K). For the same compound, where the note is “368.15 K”, the activity coefficient is 47.3 ± 3.2.
On to `CCCC(C)=O` [pentan-2-one] + O=S(=O)([N-]S(=O)(=O)C(F)(F)F)C(F)(F)F.OCCC[n+]1ccccc1, for which the activity coefficient runs as follows: (318.15 K) 0.885 ± 0.056; (328.15 K) 0.91 ± 0.058; (338.15 K) 0.937 ± 0.059; (348.15 K) 0.96 ± 0.06; (358.15 K) 0.984 ± 0.062; (368.15 K) 1.01 ± 0.06. Further, the activity coefficient (378.15 K) worked out at 1.03 ± 0.06.
For `CCC(C)CC` [3-methylpentane] + O=S(=O)([N-]S(=O)(=O)C(F)(F)F)C(F)(F)F.OCCC[n+]1ccccc1, the activity coefficient is, setting by setting: (308.15 K) 44 ± 3; (318.15 K) 40 ± 2.7; (328.15 K) 36.6 ± 2.5; (338.15 K) 33.3 ± 2.3; (348.15 K) 30.9 ± 2.1; (358.15 K) 28.5 ± 1.9.
On to `CC(=O)O` [acetic acid] + O=S(=O)([N-]S(=O)(=O)C(F)(F)F)C(F)(F)F.OCCC[n+]1ccccc1, for which the activity coefficient stood at 0.255 ± 0.03 (318.15 K); 0.277 ± 0.03 (328.15 K); 0.298 ± 0.031 (338.15 K); 0.32 ± 0.031 (348.15 K); 0.343 ± 0.032 (358.15 K); 0.367 ± 0.033 (368.15 K). The activity coefficient (378.15 K) came to 0.388 ± 0.034.
On to `CCOCC` [diethyl ether] + O=S(=O)([N-]S(=O)(=O)C(F)(F)F)C(F)(F)F.OCCC[n+]1ccccc1, for which the activity coefficient was determined as 2.71 ± 0.18 (308.15 K); 2.77 ± 0.19 (318.15 K); 2.82 ± 0.19 (328.15 K); 2.87 ± 0.2 (338.15 K); 2.91 ± 0.2 (348.15 K); 2.97 ± 0.2 (358.15 K). Moreover, the activity coefficient (368.15 K) turned out to be 3.01 ± 0.2.
As to `C1COCCO1` [1,4-dioxane] + O=S(=O)([N-]S(=O)(=O)C(F)(F)F)C(F)(F)F.OCCC[n+]1ccccc1, the activity coefficient stood at 0.514 ± 0.038 (318.15 K); 0.541 ± 0.04 (328.15 K); 0.568 ± 0.041 (338.15 K); 0.595 ± 0.042 (348.15 K); 0.621 ± 0.043 (358.15 K); 0.647 ± 0.044 (368.15 K). The activity coefficient (378.15 K) came to 0.672 ± 0.046.
With `C#CCCCCC` [1-heptyne] + O=S(=O)([N-]S(=O)(=O)C(F)(F)F)C(F)(F)F.OCCC[n+]1ccccc1, the activity coefficient was 10.1 ± 0.7 (308.15 K); 9.81 ± 0.67 (318.15 K); 9.53 ± 0.65 (328.15 K); 9.21 ± 0.63 (338.15 K); 9 ± 0.61 (348.15 K); 8.74 ± 0.6 (358.15 K). The activity coefficient (368.15 K) stood at 8.55 ± 0.58.
In the case of `CCCCC` [pentane] + O=S(=O)([N-]S(=O)(=O)C(F)(F)F)C(F)(F)F.OCCC[n+]1ccccc1, the activity coefficient runs as follows: (308.15 K) 32.9 ± 2.3; (318.15 K) 30.2 ± 2.1; (328.15 K) 27.9 ± 1.9; (338.15 K) 25.8 ± 1.8; (348.15 K) 24.3 ± 1.7.
With `C1CCCC1` [cyclopentane] + O=S(=O)([N-]S(=O)(=O)C(F)(F)F)C(F)(F)F.OCCC[n+]1ccccc1, the activity coefficient is 15.8 ± 1.1 (308.15 K); 14.6 ± 1 (318.15 K); 13.5 ± 0.9 (328.15 K); 12.5 ± 0.9 (338.15 K); 11.7 ± 0.8 (348.15 K); 11.1 ± 0.8 (358.15 K). Also, under “368.15 K”, the activity coefficient is 10.4 ± 0.7.
As for `CCO` [ethanol] + O=S(=O)([N-]S(=O)(=O)C(F)(F)F)C(F)(F)F.OCCC[n+]1ccccc1, the activity coefficient was determined as 1.16 ± 0.07 (318.15 K); 1.11 ± 0.07 (328.15 K); 1.06 ± 0.07 (338.15 K); 1.02 ± 0.06 (348.15 K); 0.984 ± 0.062 (358.15 K); 0.949 ± 0.06 (368.15 K). Further, for the setting “378.15 K”, the activity coefficient stood at 0.919 ± 0.058.
As for `CCCCCCC` [heptane] + O=S(=O)([N-]S(=O)(=O)C(F)(F)F)C(F)(F)F.OCCC[n+]1ccccc1, the activity coefficient was determined as 82 ± 5.6 (308.15 K); 73.8 ± 5.1 (318.15 K); 66.2 ± 4.5 (328.15 K); 59.3 ± 4.1 (338.15 K); 54.3 ± 3.7 (348.15 K); 49.4 ± 3.4 (358.15 K). In addition, under “368.15 K”, the activity coefficient was determined as 45.8 ± 3.1.

For the origin of these results see the NIST ThermoML archive (doi:10.1016/j.jct.2011.04.018).
